# Results published in US20250281507A1, “METHODS OF TREATING NEPHROTIC SYNDROME” (The Research Institute at Nationwide Children's Hospital, priority 2021, published 2025).
# “And” between values parts separate entries of the source, which are not always exact repeats. Equal values may be shown once.
# Columns and labels:
# children with NS [1] = test: Total Immunosuppression Score (TIS) before and after addition of pioglitazone; format: in vivo, human; parameters: % TIS reduction (0-1 mo) / % TIS reduction (5-7 mo) / % TIS reduction (0-1 mo), Mean (SEM) / % TIS reduction (5-7 mo), Mean (SEM): concentration or dose not given beside the values
# Description: The reduction in overall immunosuppression can be quantified by comparing the “Total Immunosuppression Score” (TIS) prior to and after the addition of a TZD to the drug regimen (see FIG. 3 herein). The TIS is based on a combination of the number of immunosuppressive drugs being administered and the dose at which each drug is administered. The score for each drug is on a scale of 0 to 4, where: 0=no drug administered; 1=drug administered up to less than 25% of the standardized full dose; 2=drug administered between 25% and less than 50% of the standardized full dose; 3=drug administered between 50% and less than 75% of the standardized full dose; 4=drug administered between 75% and 100% of the standardized full dose. As an example, if five different immunosuppressive medicaments are co-administered to a subject each at their standardized full dose, the TIS=20.
# For each patient, a Total Immunosuppression Score (TIS) (see Table 3) was calculated to quantitate overall immunosuppression. For each class of immunosuppressive drug administered during a given time period, a score of 0-4 was assigned based on the percentage of a full dose for each patient's body size (0=0%; 1=<25%; 2=≥25-<50%; 3=≥50-<75%: 4=≥75%).
# Quantitative data, such as patient age, duration of NS, pioglitazone dosage, and outcomes of UPCR, TIS, and serum albumin, were summarized as means (standard errors of mean), while categorical data such as renal survival status were summarized as frequency (percent). Due to a small sample size, Responders and Non-responders were compared using Wilcoxon Rank Sum tests on quantitative variables and Fisher's exact tests on categorical variables. For both Responders and Non-responders, pre-pioglitazone to post-pioglitazone initiation changes in UPCR, TIS, and serum albumin levels were analyzed using Wilcoxon Signed Rank tests. Numbers of hospitalizations pre-pioglitazone and post-pioglitazone initiation were analyzed and compared using Poisson distributions. Statistical significance was assessed at both the 0.05 and 0.10 levels. All analyses were conducted using SPSS software ver. 26 (IBM, Armonk, NY, USA).
# children with NS [2] = test: Serum albumin before and after addition of pioglitazone; format: in vivo, human; settings: for % S Alb increase (0-1 mo) / % S Alb increase (5-7 mo): vs 0-1 mo pre-PIO; for serum albumin increase, range / mean serum albumin: Responders; for mean serum albumin: pre 2.5 g/dL
# From the text: In the following clinical studies, the efficacy and safety of adding pioglitazone to reduce proteinuria in children with NS was examined. All children with NS identified worldwide to have been treated with pioglitazone were included, with no patients excluded. Each patient had pioglitazone added to their other NS medications at the discretion of their treating pediatric nephrologist. All patient records were reviewed in a de-identified manner, with prior ethics committee approval at each institution. Data were analyzed based on defined time periods before and after the addition of pioglitazone. Patients were defined as having responded to pioglitazone (i.e., Responders) if their urine protein to creatinine ratio (UPCR, mg/mg) decreased from the period 0-1 month pre-pioglitazone to the period 0-1 month post-pioglitazone. Glomerular filtration rate estimation (eGFR) in patients <18 years was calculated using the revised Schwartz equation. In patients >18 years, eGFR was calculated as the mean of the revised Schwartz and CKD-EPI creatinine equations. Quantitative data, such as patient age, duration of NS, pioglitazone dosage, and outcomes of UPCR, TIS, and serum albumin, were summarized as means (standard errors of mean), while categorical data such as renal survival status were summarized as frequency (percent). Due to a small sample size, Responders and Non-responders were compared using Wilcoxon Rank Sum tests on quantitative variables and Fisher's exact tests on categorical variables. For both Responders and Non-responders, pre-pioglitazone to post-pioglitazone initiation changes in UPCR, TIS, and serum albumin levels were analyzed using Wilcoxon Signed Rank tests. Numbers of hospitalizations pre-pioglitazone and post-pioglitazone initiation were analyzed and compared using Poisson distributions. Statistical significance was assessed at both the 0.05 and 0.10 levels. All analyses were conducted using SPSS software ver. 26 (IBM, Armonk, NY, USA).
# [3] = Patient 1 (Responder), pre-PIO 13
# [4] = Patient 1 (Responder), vs 0-1 mo pre-PIO
# [5] = Patient 2 (Responder), pre-PIO 12
# [6] = Patient 2 (Responder), vs 0-1 mo pre-PIO
# [7] = Patient 3 (Responder), pre-PIO 0
# [8] = Patient 3 (Responder), vs 0-1 mo pre-PIO (TIS 0)
# [9] = Patient 5 (Non-responder), pre-PIO 4
# [10] = Patient 5 (Non-responder), vs 0-1 mo pre-PIO
# [11] = Patient 6 (Responder), pre-PIO 2
# [12] = Patient 7 (Non-responder), pre-PIO 3
# [13] = Patient 7 (Non-responder), vs 0-1 mo pre-PIO
# [14] = Patient 8 (Responder), pre-PIO 4
# [15] = Patient 8 (Responder), vs 0-1 mo pre-PIO
# [16] = mean of 5 Responders, pre-PIO 6.20
# [17] = mean of Non-responders (Patient 4 ESRD)
# [18] = Patient 1 (Responder), pre-PIO 2.5
# [19] = Patient 2 (Responder), pre-PIO 2.4
# [20] = Patient 3 (Responder), pre-PIO 1.7
# [21] = Patient 5 (Non-responder), pre-PIO 4.4
# [22] = Patient 6 (Responder), pre-PIO 4.5
# [23] = Patient 7 (Non-responder), pre-PIO 2.9
# [24] = Patient 8 (Responder), pre-PIO 1.2
# [25] = mean of 5 Responders, pre-PIO 2.46
smiles,measurement,setting,value
CCc1ccc(CCOc2ccc(CC3SC(=O)NC3=O)cc2)nc1 (stereo not shown) [pioglitazone],mean TIS,"children with NS [1]; Non-responders, before and after pioglitazone treatment",approximately 3.5
same,Post-PIO TIS (0-1 mo),children with NS [1]; [3],11
same,Post-PIO TIS (5-7 mo),children with NS [1]; [3],5
same,% TIS reduction (0-1 mo),children with NS [1]; [4],15% and 15.4%
same,% TIS reduction (5-7 mo),children with NS [1]; [4],62% and 61.5%
same,Post-PIO TIS (0-1 mo),children with NS [1]; [5],12
same,Post-PIO TIS (5-7 mo),children with NS [1]; [5],8
same,% TIS reduction (0-1 mo),children with NS [1]; [6],0%
same,% TIS reduction (5-7 mo),children with NS [1]; [6],33% and 33.3%
same,Post-PIO TIS (0-1 mo),children with NS [1]; [7],2
same,Post-PIO TIS (5-7 mo),children with NS [1]; [7],1
same,% TIS reduction (0-1 mo),children with NS [1]; [8],−∞
same,% TIS reduction (5-7 mo),children with NS [1]; [8],−∞
same,TIS increase,"children with NS [1]; Patient 4 (Non-responder), over the next 1 month",133%
same,Post-PIO TIS (0-1 mo),"children with NS [1]; Patient 4 (Non-responder), pre-PIO 3",7
same,% TIS reduction (0-1 mo),"children with NS [1]; Patient 4 (Non-responder), vs 0-1 mo pre-PIO",−133%
same,Post-PIO TIS (0-1 mo),children with NS [1]; [9],4
same,Post-PIO TIS (5-7 mo),children with NS [1]; [9],4
same,% TIS reduction (0-1 mo),children with NS [1]; [10],0.00%
same,% TIS reduction (5-7 mo),children with NS [1]; [10],0.00%
same,Post-PIO TIS (0-1 mo),children with NS [1]; [11],2
same,Post-PIO TIS (5-7 mo),children with NS [1]; [11],2
same,% TIS reduction (5-7 mo),"children with NS [1]; Patient 6 (Responder), vs 0-1 mo pre-PIO",0.00%
same,Post-PIO TIS (0-1 mo),children with NS [1]; [12],3
same,Post-PIO TIS (5-7 mo),children with NS [1]; [12],3
same,% TIS reduction (0-1 mo),children with NS [1]; [13],0.00%
same,% TIS reduction (5-7 mo),children with NS [1]; [13],0.00%
same,Post-PIO TIS (0-1 mo),children with NS [1]; [14],3
same,Post-PIO TIS (5-7 mo),children with NS [1]; [14],2
same,% TIS reduction (0-1 mo),children with NS [1]; [15],25%
same,% TIS reduction (5-7 mo),children with NS [1]; [15],50%
same,decrease in overall exposure to immunosuppressive medications (mean TIS),"children with NS [1]; Responders, mean TIS 6.2 at 0-1 month pre- to 3.6 at 5-7 months post-pioglitazone",42%
same,"% TIS reduction (0-1 mo), Mean (SEM)",children with NS [1]; mean of 5 Responders,−∞
same,"% TIS reduction (5-7 mo), Mean (SEM)",children with NS [1]; mean of 5 Responders,−∞
same,"Post-PIO TIS (0-1 mo), Mean (SEM)",children with NS [1]; [16],6.00
same,"Post-PIO TIS (5-7 mo), Mean (SEM)",children with NS [1]; [16],3.6
same,"% TIS reduction (0-1 mo), Mean (SEM)",children with NS [1]; mean of Non-responders,−44.4%
same,"Post-PIO TIS (5-7 mo), Mean (SEM)",children with NS [1]; [17],3.50
same,"% TIS reduction (5-7 mo), Mean (SEM)",children with NS [1]; mean of Non-responders (Patient 4 NA),0.00%
same,"Post-PIO TIS (0-1 mo), Mean (SEM)","children with NS [1]; mean of Non-responders, pre-PIO 3.33",4.67
same,Post-PIO S Alb (0-1 mo; g/dL),children with NS [2]; [18],2.9 g/dL
same,Post-PIO S Alb (5-7 mo; g/dL),children with NS [2]; [18],3.5 g/dL
same,% S Alb increase (0-1 mo),children with NS [2]; Patient 1 (Responder),16.0%
same,% S Alb increase (5-7 mo),children with NS [2]; Patient 1 (Responder),40.0%
same,Post-PIO S Alb (0-1 mo; g/dL),children with NS [2]; [19],3 g/dL
same,Post-PIO S Alb (5-7 mo; g/dL),children with NS [2]; [19],3.5 g/dL
same,% S Alb increase (0-1 mo),children with NS [2]; Patient 2 (Responder),25.0%
same,% S Alb increase (5-7 mo),children with NS [2]; Patient 2 (Responder),45.8%
same,Post-PIO S Alb (0-1 mo; g/dL),children with NS [2]; [20],2.3 g/dL
same,Post-PIO S Alb (5-7 mo; g/dL),children with NS [2]; [20],3.7 g/dL
same,% S Alb increase (0-1 mo),children with NS [2]; Patient 3 (Responder),35.3%
same,% S Alb increase (5-7 mo),children with NS [2]; Patient 3 (Responder),118%
same,Post-PIO S Alb (0-1 mo; g/dL),"children with NS [2]; Patient 4 (Non-responder), pre-PIO 1.6, increase attributed to declining kidney function",2.7 g/dL
same,% S Alb increase (0-1 mo),children with NS [2]; Patient 4 (Non-responder),68.8%
same,Post-PIO S Alb (0-1 mo; g/dL),children with NS [2]; [21],4.1 g/dL
same,Post-PIO S Alb (5-7 mo; g/dL),children with NS [2]; [21],4.3 g/dL
same,% S Alb increase (0-1 mo),children with NS [2]; Patient 5 (Non-responder),−6.82%
same,% S Alb increase (5-7 mo),children with NS [2]; Patient 5 (Non-responder),−2.27%
same,Post-PIO S Alb (0-1 mo; g/dL),children with NS [2]; [22],4.1 g/dL
same,Post-PIO S Alb (5-7 mo; g/dL),children with NS [2]; [22],4.4 g/dL
same,% S Alb increase (0-1 mo),children with NS [2]; Patient 6 (Responder),−8.89%
same,% S Alb increase (5-7 mo),children with NS [2]; Patient 6 (Responder),−2.22%
same,Post-PIO S Alb (0-1 mo; g/dL),children with NS [2]; [23],2.8 g/dL
same,Post-PIO S Alb (5-7 mo; g/dL),children with NS [2]; [23],3.1 g/dL
same,% S Alb increase (0-1 mo),children with NS [2]; Patient 7 (Non-responder),−3.45%
same,% S Alb increase (5-7 mo),children with NS [2]; Patient 7 (Non-responder),6.90%
same,Post-PIO S Alb (0-1 mo; g/dL),children with NS [2]; [24],3.1 g/dL
same,Post-PIO S Alb (5-7 mo; g/dL),children with NS [2]; [24],3.4 g/dL
same,% S Alb increase (0-1 mo),children with NS [2]; Patient 8 (Responder),158%
same,% S Alb increase (5-7 mo),children with NS [2]; Patient 8 (Responder),183%
same,"serum albumin increase, range",children with NS [2]; 0-1 month post-pioglitazone,−9-158%
same,mean serum albumin,children with NS [2]; 0-1 month post-pioglitazone,3.1 g/dL
same,"serum albumin increase, range",children with NS [2]; 5-7 months post-pioglitazone,−2-183%
same,mean serum albumin,children with NS [2]; 5-7 months post-pioglitazone,3.7 g/dL
same,"% S Alb increase (0-1 mo), Mean (SEM)",children with NS [2]; mean of 5 Responders,45% and 45.2%
same,"% S Alb increase (5-7 mo), Mean (SEM)",children with NS [2]; mean of 5 Responders,77% and 76.9%
same,"Post-PIO S Alb (0-1 mo; g/dL), Mean (SEM)",children with NS [2]; [25],3.08 g/dL
same,"Post-PIO S Alb (5-7 mo; g/dL), Mean (SEM)",children with NS [2]; [25],3.7 g/dL
same,"% S Alb increase (0-1 mo), Mean (SEM)",children with NS [2]; mean of Non-responders,19.5%
same,"Post-PIO S Alb (5-7 mo; g/dL), Mean (SEM)",children with NS [2]; [17],3.7 g/dL
same,"% S Alb increase (5-7 mo), Mean (SEM)",children with NS [2]; mean of Non-responders (without Patient 4),2.31%
same,"Post-PIO S Alb (0-1 mo; g/dL), Mean (SEM)","children with NS [2]; mean of Non-responders, pre-PIO 2.97",3.2 g/dL
